Columns and labels:
Format in all cases: cell-based, mouse
Hepa1-6 cells = test: Scratch (wound healing) assay; conditions: 24 h, medium from activated neutrophils treated with NPs, mean ± s.d., n = 3
Description: Cell migration and invasion assay
To produce cell gaps for cell scratch tests, Hepa1-6/luc cells were injected into culture inserts (IBIDI, Germany).
After 24 hours, the cells were treated with Resting neutrophils, Control, NFTP-NPs, FTP-NPs, and NEi groups.
Cell migration was monitored during the overnight culture of the cells. […]
(§1) Matrigel tube formation assay
Murine C166 endothelial cells (3×10^4cells/well) were placed on 96-well plates coated with Matrigel (356231,
Corning, New York, USA) and incubated with various treatments. […]
(§2) In vitro permeability assays and trans-endothelial invasion assays
For in vitro permeability assays, C166 cells were treated with Resting neutrophils, Control, NFTP-NPs, FTP-
NPs, and NEi groups for 48 h to form an endothelial monolayer, and then Evans Blue (PHYGENE, China) was
added to the upper layer of the transwell filters (0.4 μm, Corning). […]
(§3) All the experiments were performed thrice. […]

activated neutrophils = test: NETs formation (MPO-DNA ELISA, CitH3 immunofluorescence and Western blot); conditions: PMA-activated neutrophils, 50 µM, 4 h, CitH3 staining and Western blot
Description: Submitted to Advanced Science
Neutrophil Elastase Activity Assay
To evaluate the distribution of active NE on the surface and inside of neutrophils, we used a kit (AkrivisBio’s Neutrophil Elastase Activity Assay, MA-0156), seeded neutrophils in confocal microscopy dishes, and then treated them with NFTP-NPs (50 µM, medium: DMSO = 99:1, v/v), FTP-NPs (50 µM, medium: DMSO = 99:1, v/v), PMA+NFTP-NPs (50 µM, medium: DMSO = 99:1, v/v), and PMA+FTP-NPs (50 µM, medium: DMSO = 99:1, v/v) at 37°C. Because the Neutrophil elastase in the kit cleaves a concrete fluorogenic substrate which releases AFC, providing intense fluorescence, 50 μl of MeOSucc-AAPV-AFC mix (Assay Buffer: MeOSucc-AAPV-AFC = 48:2) was added at 4 h, and after incubation for 1 h, the samples were examined by CLSM (LSM980, Zeiss, Germany).
Quantitative analysis of NE activity […]
DMSO = 99:1, v/v) for 4 h to obtain the solution.35,36 Quantitative analysis was carried out by a NETosis Assay Kit (Cayman Chemical, USA).
Quantitative induction analysis of NETs in vitro […]
According to the manufacturer's instructions, MPO -DNA levels in cultured supernatant were analyzed by an ELISA kit (MEIMIAN, China).38 Briefly, samples were added to each well and incubated with anti -MPO and anti-DNA antibodies for 2 h at room temperature. […] The OD value w as then measured by a microplate […]

C166 endothelial cells = test: Matrigel tube formation assay; conditions: 6 h, versus Control and NFTP-NPs groups
Description: as §1
Murine C166 endothelial cells (3×10^4cells/well) were placed on 96-well plates coated with Matrigel (356231, Corning, New York, USA) and incubated with various treatments. After incubation for six h, capillary-like structures were observed and counted under a microscope (Axiovert 200, Zeiss, Germany). All the experiments […]
as §2
For in vitro permeability assays, C166 cells were treated with Resting neutrophils, Control, NFTP-NPs, FTP-NPs, and NEi groups for 48 h to form an endothelial monolayer, and then Evans Blue (PHYGENE, China) was added to the upper layer of the transwell filters (0.4 μm, Corning). […]
as §3

PpIX-GFFVLK-EAIPMSIPPEVK [FTP-NPs] was tested, and the wound healing rate (Hepa1-6 cells) was 5.2% ± 1.8%, the “formation of NETs” value (activated neutrophils) was “effectively inhibit the formation of NETs” and the “number of tubular structures formed” value (C166 endothelial cells) was “significantly lower”.

Reference: PMC12767106, “In Situ Assembly of Transformable Monopeptide on Activated Neutrophils Attenuates NETs‐Induced Hepatocellular Carcinoma Metastasis by Disrupting NE Nuclear Translocation” (Advanced Science, 2025)
